One assay addresses c-Cbl (residues 47-435) (Homo sapiens (Human), UniProt P22681). As to the kind of experiment: c-Cbl SPR assay. It is filed as binding. Particulars: 20° C. In short, it runs like this:
(§1)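 SPR, multi-cycle, 6-pt 2-fold series, blanks flanking for double referencing; capture 1300-1500 RU; contact 60 s at 40 μl/min; dissoc. 120-1200 s (~4-5 half-lives). 1:1 fit. Chaser variant: single cycle, 5 conc., top 500 nM, 120 s contact, 450 s dissociation.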

For the next assay, the target named is Cbl-b (Homo sapiens (Human), UniProt Q13191). Briefly: Cbl-b LCK Ub TR-FRET assay (Cbl-b Lck HTRF). Format: biochemical. Particulars: for IC50: Cbl-b LCK Ub TR-FRET, Example 121; for (fold-selectivity) Cbl-b and C-Cbl Selectivity: ratio C-cbl Lck HTRF IC50 / Cbl-b Lck HTRF IC50. A digest of the protocol:
(§2)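 After the ubiquitination reaction, detection mixture was added and plates incubated 20 min at room temperature before reading. IC50 values were calculated with wells lacking LCK as the low control and DMSO as the high control.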

Another assay addresses c-Cbl (Homo sapiens (Human), UniProt P22681). As to the kind of experiment: C-Cbl LCK Ub TR-FRET assay (C-cbl Lck HTRF). It is filed as biochemical. In short, it runs like this:
as §2

Assay [1] deals with Human Cbl-b (residues 40-426) (Homo sapiens (Human), UniProt Q13191). As to the kind of experiment: Cbl-b SPR assay. Format: binding. The conditions noted are these: for Fold of selectivity: C-cbl SPR Kd vs Cbl-b SPR Kd; for Kd: SPR, 20° C. In short, it runs like this: as §1
Human Cbl-b (residues 40-426), sequence (Q13191 40-426): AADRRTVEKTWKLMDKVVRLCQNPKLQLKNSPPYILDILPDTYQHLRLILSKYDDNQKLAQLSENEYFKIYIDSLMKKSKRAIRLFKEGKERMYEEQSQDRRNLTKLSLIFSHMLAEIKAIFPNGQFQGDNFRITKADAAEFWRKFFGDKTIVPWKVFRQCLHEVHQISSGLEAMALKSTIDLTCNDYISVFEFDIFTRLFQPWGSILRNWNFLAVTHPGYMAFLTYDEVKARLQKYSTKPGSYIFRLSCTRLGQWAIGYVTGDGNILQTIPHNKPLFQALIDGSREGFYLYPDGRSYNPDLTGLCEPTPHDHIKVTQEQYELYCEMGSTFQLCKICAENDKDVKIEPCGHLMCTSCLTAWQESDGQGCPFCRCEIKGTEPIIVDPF

Cbl-b, sequence (Q13191 40-426): as above
c-Cbl, sequence (P22681 47-435): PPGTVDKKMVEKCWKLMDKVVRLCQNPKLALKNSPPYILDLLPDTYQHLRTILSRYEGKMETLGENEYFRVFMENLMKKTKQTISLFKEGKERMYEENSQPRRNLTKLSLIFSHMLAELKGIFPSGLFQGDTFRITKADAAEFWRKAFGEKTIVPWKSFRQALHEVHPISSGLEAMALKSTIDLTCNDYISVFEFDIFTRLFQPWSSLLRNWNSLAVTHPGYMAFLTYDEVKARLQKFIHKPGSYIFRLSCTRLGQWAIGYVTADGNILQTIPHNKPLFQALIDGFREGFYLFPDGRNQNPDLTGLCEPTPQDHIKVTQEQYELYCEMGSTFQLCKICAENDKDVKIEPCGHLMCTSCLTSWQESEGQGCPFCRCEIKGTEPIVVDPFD
c-Cbl (residues 47-435), sequence (P22681 47-435): as above

Turning to `CO[C@H]1C[C@](c2cccc(N3Cc4c(cc(CN[C@@]56CCC[C@@H]5C6)cc4C(F)(F)F)C3=O)c2)(c2nncn2C)C1` [Compound 508, 6-(((1R,5R)-bicyclo[3.1.0]hexan-1-ylamino)methyl)-2-(3-((1r,3R)-3-methoxy-1-(4-methyl-4H-1,2,4-triazol-3-yl)cyclobutyl)phenyl)-4-(trifluoromethyl)isoindolin-1-one], the Kd at c-Cbl (residues 47-435) amounted to 24 nM. For the same compound, on Cbl-b, the IC50 was determined as 6.2 nM; the “(fold-selectivity) Cbl-b and C-Cbl Selectivity” value was 3.8x. Further, half-maximal inhibition on c-Cbl (IC50) was put at 24 nM. In assay [1], this compound showed a Fold of selectivity of 14× and a Kd of 1.7 nM.

On c-Cbl (residues 47-435), `CO[C@H]1C[C@](c2cccc(N3Cc4c(cc(CNCC5(CO)CC6CC6C5)cc4C(F)(F)F)C3=O)c2)(c2nncn2C)C1` (stereo partly drawn) [Compound 509, 6-((((3-(hydroxymethyl)bicyclo[3.1.0]hexan-3-yl)methyl)amino)methyl)-2-(3-((1r,3r)-3-methoxy-1-(4-methyl-4H-1,2,4-triazol-3-yl)cyclobutyl)phenyl)-4-(trifluoromethyl)isoindolin-1-one] displayed a Kd of 75 nM. At Cbl-b, half-maximal inhibition (IC50) required 16 nM; the “(fold-selectivity) Cbl-b and C-Cbl Selectivity” value is 4.7x. This compound had an IC50 on c-Cbl of 75 nM. In assay [1], the Fold of selectivity is 13× and the Kd amounted to 6 nM.

Regarding `CO[C@H]1C[C@](c2cccc(N3Cc4c(cc(CNCC5CC56CC6(F)F)cc4C(F)(F)F)C3=O)c2)(c2nncn2C)C1` (stereo partly drawn) [Compound 510], at c-Cbl (residues 47-435), the affinity, expressed as Kd, was 60 nM. Further, on Cbl-b, the midpoint of inhibition, the IC50, lay at 12 nM; the “(fold-selectivity) Cbl-b and C-Cbl Selectivity” value stood at 4.2x. For the same compound, at c-Cbl, the IC50 came to 51 nM. In assay [1], this compound had a Fold of selectivity of 18× and a Kd of 3.4 nM.

With `CCCNCc1cc2c(c(C(F)(F)F)c1)CN(c1cccc([C@]3(c4nncn4C)C[C@H](OC)C3)c1)C2=O` [Compound 511, 2-(3-((1r,3r)-3-methoxy-1-(4-methyl-4H-1,2,4-triazol-3-yl)cyclobutyl)phenyl)-6-((propylamino)methyl)-4-(trifluoromethyl)isoindolin-1-one], the Kd on c-Cbl (residues 47-435) worked out at 65 nM; in assay [1] it was 5 nM. In addition, the IC50 was found to be 12 nM at Cbl-b and 61 nM against c-Cbl. The “(fold-selectivity) Cbl-b and C-Cbl Selectivity” value at Cbl-b is given as 5.0x. The compound further gave a Fold of selectivity in assay [1] of 13×.

Source of the values: patent publication US12187709B2 (Genentech, Inc., priority 2021, dated 2025).
